Assays:
RAW 264.7 cells = assay: LPS-induced NO2^– formation in macrophage RAW 264.7 cells; assay type: cell-based; conditions: 25 μM pretreatment 6 h, then LPS 1.0 μg/mL 18 h
[1] = assay type: physicochemical; conditions: pH 7.4 aqueous buffer

Row | Molecule | effect on LPS-induced NO2^– production (RAW 264.7 cells) | stability in aqueous buffer (PNA formation) [1]
1 | C1COCCN1.COc1ccc(P(=S)(S)N2CCOCC2)cc1 (centres unmarked) [GYY4137] | less pronounced effect | –
2 | n-butylthiocarbamate [n-BuTCM-1] | – | stable
